Results published in patent US12497666B2, “Nucleic acid biomarker and use thereof” (Daiichi Sankyo Co., Ltd., priority 2013, dated 2025).

Columns and labels:
ZR75-1 = assay: Xenograft tumor growth inhibition by U3-1287, ZR75-1; type: in vivo; conditions: ZR75-1 xenograft in mice, BC FISH + ve; tumor volumes vs control mice
Description: (§1) The HRG biomarker was identified by analysing the anti-tumor activity of the anti-HER3 antibody U3-1287 on various human cancer xenografts in vivo and analysis of the expression of HRG of these cell lines in vitro. Human tumor cell lines of various indications were grown as xenografts in mice and treated with the […] antibody U3-1287 for several weeks. Inhibition of tumor growth was analysed by comparing the tumor volumes of control mice and mice treated with U3-1287. Human tumor cell lines were grown in vitro and analysed for HRG RNA expression by PCR.

HT-29 = assay: Xenograft tumor growth inhibition by U3-1287, HT-29; type: in vivo; conditions: HT-29 xenograft in mice, Colon; tumor volumes vs control mice
Description: as §1

BxPC3 = assay: Xenograft tumor growth inhibition by U3-1287, BxPC3; type: in vivo; conditions: BxPC3 xenograft in mice, Pancreas; tumor volumes vs control mice
Description: as §1

Sum225 = assay: Xenograft tumor growth inhibition by U3-1287, Sum225; type: in vivo; conditions: Sum225 xenograft in mice, BC FISH + ve; tumor volumes vs control mice
Description: as §1

BT474 [1] = assay: Xenograft tumor growth inhibition by U3-1287, BT474; type: in vivo; conditions: BT474 xenograft in mice, BC FISH + ve; tumor volumes vs control mice
Description: as §1

NC-H1975 = assay: Xenograft tumor growth inhibition by U3-1287, NC-H1975; type: in vivo; conditions: NC-H1975 xenograft in mice, NSCLC; tumor volumes vs control mice
Description: as §1

MKN-45 = assay: Xenograft tumor growth inhibition by U3-1287, MKN-45; type: in vivo; conditions: MKN-45 xenograft in mice, Gastric; tumor volumes vs control mice
Description: as §1

Calu-3 = assay: Xenograft tumor growth inhibition by U3-1287, Calu-3; type: in vivo; conditions: Calu-3 xenograft in mice, NSCLC; tumor volumes vs control mice
Description: as §1

FaDu = assay: Xenograft tumor growth inhibition by U3-1287, FaDu; type: in vivo; conditions: FaDu xenograft in mice, Head&Neck; tumor volumes vs control mice
Description: as §1

[2] = Phase 1 monotherapy study of patritumab
Description: A higher maintenance dose level of 18 mg/kg was also included to accommodate the possible effect of reduced tumor tissue penetration in the clinical setting relative to animal models.

A375 = assay: Xenograft tumor growth inhibition by U3-1287, A375; type: in vivo; conditions: A375 xenograft in mice, Melanoma; tumor volumes vs control mice
Description: as §1

MDA-MB453 = assay: Xenograft tumor growth inhibition by U3-1287, MDA-MB453; type: in vivo; conditions: MDA-MB453 xenograft in mice, BC FISH + ve; tumor volumes vs control mice
Description: as §1

BT474 [3] = assay: HER3 phosphorylation by Western blot, BT474; type: cell-based, human
From the text: FIG. 15 depicts Western blots showing that U3-1287 can block […] basal HER3 phosphorylation.

HCC 1569 = assay: Xenograft tumor growth inhibition by U3-1287, HCC 1569; type: in vivo; conditions: HCC 1569 xenograft in mice, BC FISH + ve; tumor volumes vs control mice
Description: as §1

NCI-H441 = assay: Xenograft tumor growth inhibition by U3-1287, NCI-H441; type: in vivo; conditions: NCI-H441 xenograft in mice, NSCLC; tumor volumes vs control mice
Description: as §1

HT-144 = assay: Xenograft tumor growth inhibition by U3-1287, HT-144; type: in vivo; conditions: HT-144 xenograft in mice, Melanoma; tumor volumes vs control mice
Description: as §1

CaOV3 = assay: Reduction of phospho-HER3 and phospho-AKT levels by Western blotting, CaOV3; type: cell-based, human; conditions: CaOV3, no basal HER3 activation, stimulated with exogenous heregulin
Description: (§2) FIG. 14 depicts efficacy determined in vitro by measuring reduction of phospho-HER3 and phospho-AKT levels by Western blotting.
(§3) U3-1287 efficacy was determined in vitro by measuring reduction of phospho-HER3 and phospho-AKT levels.

A549 [4] = assay: Xenograft tumor growth inhibition by U3-1287, A549; type: in vivo; conditions: A549 xenograft in mice, NSCLC; tumor volumes vs control mice
Description: as §1

MCF-7 = assay: Xenograft tumor growth inhibition by U3-1287, MCF-7; type: in vivo; conditions: MCF-7 xenograft in mice, BC FISH + ve; tumor volumes vs control mice
Description: as §1

A549 [5] = assay: Reduction of phospho-HER3 and phospho-AKT levels by Western blotting, A549; type: cell-based, human; conditions: A549, endogenously express heregulin
Description: as §2, §3

## patritumab: anti-HER3 antibody; U3-1287 corresponds to patritumab
ZR75-1
  In vivo efficacy (SA): No
HT-29
  In vivo efficacy (SA): Yes
BxPC3
  In vivo efficacy (SA): Yes
Sum225
  In vivo efficacy (SA): No
BT474 [1]
  In vivo efficacy (SA): No
NC-H1975
  In vivo efficacy (SA): Yes
MKN-45
  In vivo efficacy (SA): Yes
Calu-3
  In vivo efficacy (SA): Yes
FaDu
  In vivo efficacy (SA): Yes
[2]; Phase 1 study
  maximum tolerated dose: not reached
[2]; monotherapy Phase 1 study
  dose limiting toxicity: lack of dose limiting toxicity
A375
  In vivo efficacy (SA): No
MDA-MB453
  In vivo efficacy (SA): No
BT474 [3]; BT474 HRG: exogenously added heregulin
  efficacy on HER3 phosphorylation: this could be overcome by exogenously added heregulin
BT474 [3]; BT474 basal: basal HER3 phosphorylation, no heregulin expression
  efficacy on HER3 phosphorylation: no efficacy
HCC 1569
  In vivo efficacy (SA): No
NCI-H441
  In vivo efficacy (SA): No
HT-144
  In vivo efficacy (SA): No
CaOV3
  HER3 phosphorylation (phospho-HER3 and phospho-AKT levels): could be blocked
A549 [4]
  In vivo efficacy (SA): Yes
MCF-7
  In vivo efficacy (SA): No
A549 [5]
  Basal HER3 phosphorylation (phospho-HER3 and phospho-AKT levels): Basal HER3 phosphorylation could be blocked
